Data on 10 molecules can be found in patent US20260028326A1, “COMPOUND BASED ON ISOINDOLINE-SUBSTITUTED GLUTARIMIDE BACKBONE AND USE THEREOF” (GLUETACS THERAPEUTICS (SHANGHAI) CO., LTD., priority 2022, published 2026).

Experiment [1] addresses human Cereblon WT GST-tagged protein (Homo sapiens (Human), UniProt Q96SW2). The experiment in a line: CRBN-binding affinity, HTRF (CEREBLON BINDING kit). The gist of the method:
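HTRF competition readout: compounds compete with a thalidomide-Re conjugate for GST-tagged wild-type human CRBN detected via Eu-labelled anti-GST antibody. Inhibition rate derived relative to protein-free blank wells.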
In general terms: Time-resolved FRET reads energy transfer from a long-lived donor to a nearby acceptor.

Another experiment concerns the target IKZF1 protein (Homo sapiens (Human), UniProt Q13422+Q96SW2). The experiment in a line: Western-blot assay of substrate protein degradation in hPBMC, IKZF1. In kind it is cell-based. The note with it: hPBMC cells, compound 500 nM, 24 hours, Western blot. Background: A western blot detects proteins with antibodies after separation by electrophoresis.
The next experiment concerns MM.1S cells. As to the kind of experiment: Tumor cell proliferation IC50 (CCK-8), MM.1S.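 Note: viability of cultured cells read by CCK-8 reagent after compound exposure, growth inhibition curves fitted to derive IC50.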 To be noted: Homo sapiens, MM1.S, 72 h, read-out: IC50 for inhibiting the proliferation of tumor cells, MM.1S.
Another experiment deals with Mino cells. The experiment in a line: Tumor cell proliferation IC50 (CCK-8), Mino.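 Note: cell viability assessed with CCK-8 reagent after compound exposure, IC50 derived from plotted growth inhibition curves.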 The note with it: Homo sapiens, 72 h, read-out: IC50 for inhibiting the proliferation of tumor cells, Mino.
In another experiment the target is GSPT1 protein (Homo sapiens (Human), UniProt P15170+Q96SW2). As to the kind of experiment: Western-blot assay of substrate protein degradation in hPBMC, GSPT1. In kind it is cell-based. The note with it: hPBMC cells, compound 500 nM, 24 hours, Western blot.
Chain of GSPT1 protein (P15170 whole entry): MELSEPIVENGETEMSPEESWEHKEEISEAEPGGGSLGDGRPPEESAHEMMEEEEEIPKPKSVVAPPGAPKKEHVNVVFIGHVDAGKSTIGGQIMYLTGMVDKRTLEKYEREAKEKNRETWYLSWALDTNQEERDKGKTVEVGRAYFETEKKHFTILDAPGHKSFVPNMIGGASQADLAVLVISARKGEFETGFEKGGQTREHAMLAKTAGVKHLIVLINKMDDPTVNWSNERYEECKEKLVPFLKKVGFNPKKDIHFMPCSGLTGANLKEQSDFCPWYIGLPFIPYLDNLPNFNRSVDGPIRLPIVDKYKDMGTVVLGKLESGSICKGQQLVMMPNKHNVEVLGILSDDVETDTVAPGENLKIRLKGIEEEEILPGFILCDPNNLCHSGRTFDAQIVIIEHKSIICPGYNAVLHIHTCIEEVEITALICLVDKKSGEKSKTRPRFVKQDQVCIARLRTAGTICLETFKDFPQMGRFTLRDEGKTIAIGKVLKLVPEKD
Chain of GSPT1 protein (Q96SW2 whole entry): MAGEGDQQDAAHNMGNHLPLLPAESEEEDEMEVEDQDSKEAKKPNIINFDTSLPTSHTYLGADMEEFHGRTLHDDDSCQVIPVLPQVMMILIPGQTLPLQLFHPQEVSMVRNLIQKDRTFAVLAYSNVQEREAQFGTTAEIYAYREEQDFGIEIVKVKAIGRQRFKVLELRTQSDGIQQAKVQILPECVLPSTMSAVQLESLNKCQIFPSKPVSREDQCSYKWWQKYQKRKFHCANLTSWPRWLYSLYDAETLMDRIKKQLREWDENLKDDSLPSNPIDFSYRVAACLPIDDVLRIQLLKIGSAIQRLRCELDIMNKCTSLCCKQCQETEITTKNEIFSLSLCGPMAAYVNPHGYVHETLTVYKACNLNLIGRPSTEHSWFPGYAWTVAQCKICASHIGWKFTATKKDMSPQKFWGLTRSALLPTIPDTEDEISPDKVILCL
Chain of GSPT1 protein (Q16531 whole entry partner): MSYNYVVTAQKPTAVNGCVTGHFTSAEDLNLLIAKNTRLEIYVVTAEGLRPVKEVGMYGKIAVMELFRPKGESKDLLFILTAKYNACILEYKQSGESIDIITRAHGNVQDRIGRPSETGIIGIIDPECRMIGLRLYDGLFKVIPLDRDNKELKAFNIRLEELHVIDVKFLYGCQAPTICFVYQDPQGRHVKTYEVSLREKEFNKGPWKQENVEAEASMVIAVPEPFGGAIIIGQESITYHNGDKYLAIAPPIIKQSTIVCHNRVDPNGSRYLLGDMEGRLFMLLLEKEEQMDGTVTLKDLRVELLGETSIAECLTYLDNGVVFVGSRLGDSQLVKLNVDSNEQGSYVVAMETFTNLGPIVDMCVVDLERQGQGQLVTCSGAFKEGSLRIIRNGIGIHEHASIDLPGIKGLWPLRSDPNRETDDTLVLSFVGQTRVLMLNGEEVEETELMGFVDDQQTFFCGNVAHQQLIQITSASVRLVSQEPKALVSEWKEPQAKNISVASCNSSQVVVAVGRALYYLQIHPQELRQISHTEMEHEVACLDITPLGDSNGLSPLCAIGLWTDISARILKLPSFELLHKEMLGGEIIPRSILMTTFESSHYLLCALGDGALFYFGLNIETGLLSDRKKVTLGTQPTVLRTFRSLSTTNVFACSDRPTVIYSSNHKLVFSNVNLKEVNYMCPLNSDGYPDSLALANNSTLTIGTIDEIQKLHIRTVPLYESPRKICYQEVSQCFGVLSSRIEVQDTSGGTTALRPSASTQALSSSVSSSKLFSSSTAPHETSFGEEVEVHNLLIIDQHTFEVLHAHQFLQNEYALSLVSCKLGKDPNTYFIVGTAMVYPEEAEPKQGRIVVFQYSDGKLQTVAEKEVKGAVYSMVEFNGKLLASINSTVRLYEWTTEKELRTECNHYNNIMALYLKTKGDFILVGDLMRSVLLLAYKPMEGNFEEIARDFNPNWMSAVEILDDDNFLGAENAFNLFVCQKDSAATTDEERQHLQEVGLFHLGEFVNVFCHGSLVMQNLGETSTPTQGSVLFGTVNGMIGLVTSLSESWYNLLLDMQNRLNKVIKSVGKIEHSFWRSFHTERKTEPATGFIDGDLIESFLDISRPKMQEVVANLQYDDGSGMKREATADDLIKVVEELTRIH
The target in another experiment is IKZF3 protein (Homo sapiens (Human), UniProt Q96SW2+Q9UKT9). As to the kind of experiment: Western-blot assay of substrate protein degradation in hPBMC, IKZF3. The note with it: hPBMC cells, compound 500 nM, 24 hours, Western blot. In kind it is cell-based.
Chain of IKZF3 protein (Q9UKT9 whole entry): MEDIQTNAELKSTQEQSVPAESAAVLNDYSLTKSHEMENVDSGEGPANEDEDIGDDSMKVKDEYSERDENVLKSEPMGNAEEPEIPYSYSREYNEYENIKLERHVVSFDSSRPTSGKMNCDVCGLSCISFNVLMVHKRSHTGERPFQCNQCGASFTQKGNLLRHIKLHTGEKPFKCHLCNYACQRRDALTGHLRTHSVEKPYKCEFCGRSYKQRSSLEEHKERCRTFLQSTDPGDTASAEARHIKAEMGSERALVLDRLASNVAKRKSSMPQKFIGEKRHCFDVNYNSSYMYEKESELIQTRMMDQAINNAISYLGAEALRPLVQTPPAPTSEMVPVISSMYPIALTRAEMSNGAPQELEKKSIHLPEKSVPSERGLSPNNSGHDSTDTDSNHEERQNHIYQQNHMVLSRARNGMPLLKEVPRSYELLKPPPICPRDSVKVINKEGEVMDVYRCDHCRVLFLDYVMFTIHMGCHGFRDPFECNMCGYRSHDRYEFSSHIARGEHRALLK
Chain of IKZF3 protein (Q96SW2 whole entry): as the sequence (Q96SW2 whole entry) above
Chain of IKZF3 protein (Q16531 whole entry partner): as the sequence (Q16531 whole entry partner) above
A further experiment has as its system Daudi cells. The experiment in a line: Tumor cell proliferation IC50 (CCK-8), Daudi.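 Note: cell viability read with CCK-8 reagent after compound exposure of Daudi cells, IC50 derived from plotted growth inhibition curves.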 The note with it: Homo sapiens, read-out: IC50 for inhibiting the proliferation of tumor cells, Daudi.
A further experiment concerns CCRF-CEM cells. As to the kind of experiment: Tumor cell proliferation IC50 (CCK-8), CCRF-CEM.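 Note: cell viability measured with CCK-8 reagent after compound treatment, IC50 taken from plotted growth inhibition curves.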 The note with it: Homo sapiens, 96 h, read-out: IC50 for inhibiting the proliferation of tumor cells, CCRF-CEM.

Bounds are passed on as bounds.

Chain of human Cereblon WT GST-tagged protein (Q96SW2 whole entry): as the sequence (Q96SW2 whole entry) above
Chain of IKZF1 protein (Q13422 whole entry): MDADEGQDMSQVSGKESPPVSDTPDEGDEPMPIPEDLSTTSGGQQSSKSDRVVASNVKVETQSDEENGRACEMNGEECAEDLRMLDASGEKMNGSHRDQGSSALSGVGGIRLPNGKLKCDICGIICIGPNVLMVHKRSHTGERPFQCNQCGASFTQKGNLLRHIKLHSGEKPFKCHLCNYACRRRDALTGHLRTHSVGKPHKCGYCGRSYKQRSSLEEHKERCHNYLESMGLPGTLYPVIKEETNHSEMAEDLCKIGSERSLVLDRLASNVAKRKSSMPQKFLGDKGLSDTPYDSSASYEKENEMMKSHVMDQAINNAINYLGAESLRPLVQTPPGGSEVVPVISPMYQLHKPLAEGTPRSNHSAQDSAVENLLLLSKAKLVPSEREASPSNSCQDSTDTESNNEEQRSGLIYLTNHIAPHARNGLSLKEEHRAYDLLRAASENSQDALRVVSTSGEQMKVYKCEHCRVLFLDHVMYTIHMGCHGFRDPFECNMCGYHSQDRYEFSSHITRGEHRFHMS
Chain of IKZF1 protein (Q96SW2 whole entry): as the sequence (Q96SW2 whole entry) above
Chain of IKZF1 protein (Q16531 whole entry partner): as the sequence (Q16531 whole entry partner) above

On to `O=C1CCC(N2Cc3c(ccc(CN4CCN(CC5=C(c6ccc(F)cc6)CCCC5)CC4)c3F)C2=O)C(=O)N1` (stereo not drawn) [GT-05466, 3-(4-fluoro-5-((4-((4′-fluoro-3,4,5,6-tetrahydro-[1,1′-biphenyl]-2-yl)methyl)piperazin-1-yl)methyl)-1-oxoisoindolin-2-yl)piperidine-2,6-dione], for which the IC50 in experiment [1] is 700 nM; in the experiment on MM.1S cells, 10 to 50 nM; with Mino cells, 10 to 50 nM; in the experiment on Daudi cells, 50 to 100 nM. On IKZF1 protein, the “residual substrate protein level, IKZF1” value is listed as “A (A represents a residual substrate protein level of <50%)”. Further, the “residual substrate protein level, GSPT1” value at GSPT1 protein was “A (A represents a residual substrate protein level of <50%)”. For the same molecule, the “residual substrate protein level, IKZF3” value at IKZF3 protein is given as “A (A represents a residual substrate protein level of <50%)”.
Turning to `O=C1CCC(N2Cc3cc(CN4CCN(Cc5ccc(-c6cccs6)s5)CC4)ccc3C2=O)C(=O)N1` (stereo not drawn) [GT-05624, 3-(5-((4-([2,2′-bithiophen]-5-ylmethyl)piperazin-1-yl)methyl)-1-oxoisoindolin-2-yl)piperidine-2,6-dione], the IC50 in experiment [1] is 470 nM; in the experiment on MM.1S cells, 100 to 500 nM; in the experiment on Mino cells it was 10 to 50 nM; with Daudi cells, 500 to 1000 nM. Besides, at IKZF1 protein, the “residual substrate protein level, IKZF1” value was “A (A represents a residual substrate protein level of <50%)”. The “residual substrate protein level, GSPT1” value on GSPT1 protein was “B (B represents a residual substrate protein level of >50%)”. Besides, the “residual substrate protein level, IKZF3” value at IKZF3 protein is on record as “A (A represents a residual substrate protein level of <50%)”.
In the case of `O=C1CCC(N2Cc3cc(CN4CCN(Cc5ccc(-c6ccc(Cl)cc6)s5)CC4)ccc3C2=O)C(=O)N1` (stereo not drawn) [GT-05625, 3-(5-((4-((5-(4-chlorophenyl)thiophen-2-yl)methyl)piperazin-1-yl)methyl)-1-oxoisoindolin-2-yl)piperidine-2,6-dione], the IC50 in experiment [1] was 1670 nM; in the experiment with MM.1S cells, 100 to 500 nM; with Mino cells, 50 to 100 nM; in the experiment on Daudi cells it was 100 to 500 nM. Moreover, the “residual substrate protein level, IKZF1” value on IKZF1 protein is recorded as “B (B represents a residual substrate protein level of >50%)”. For the same molecule, the “residual substrate protein level, GSPT1” value at GSPT1 protein is recorded as “B (B represents a residual substrate protein level of >50%)”. Moreover, the “residual substrate protein level, IKZF3” value at IKZF3 protein was “B (B represents a residual substrate protein level of >50%)”.
Regarding `O=C1CCC(N2Cc3cc(CN4CCN(Cc5ccc(-c6ccc(Cl)cc6)nc5)CC4)ccc3C2=O)C(=O)N1` (stereo not drawn) [GT-05632, 3-(5-((4-((6-(4-chlorophenyl)pyridin-3-yl)methyl)piperazin-1-yl)methyl)-1-oxoisoindolin-2-yl)piperidine-2,6-dione], the IC50 is 720 nM in experiment [1], 100 to 500 nM with MM.1S cells, under 5 nM in the experiment with Mino cells and 10 to 50 nM in the experiment with Daudi cells.
Regarding `O=C1CCC(N2Cc3cc(CN4CCN(Cc5ccc(-c6ccncc6)nc5)CC4)ccc3C2=O)C(=O)N1` (stereo not drawn) [GT-05633, 3-(5-((4-([2,4′-bipyridin]-5-ylmethyl)piperazin-1-yl)methyl)-1-oxoisoindolin-2-yl)piperidine-2,6-dione], the IC50 in experiment [1] is 760 nM; with Mino cells it was under 5 nM; in the experiment with Daudi cells it was 100 to 500 nM. Besides, the “residual substrate protein level, IKZF1” value at IKZF1 protein is “A (A represents a residual substrate protein level of <50%)”. Moreover, the “residual substrate protein level, GSPT1” value on GSPT1 protein is on record as “B (B represents a residual substrate protein level of >50%)”. In addition, the “residual substrate protein level, IKZF3” value at IKZF3 protein is given as “A (A represents a residual substrate protein level of <50%)”.
In the case of `CC1(C)CC(c2ccc(Cl)cc2)=C(CN2CCN(Cc3ccc4c(c3)CN(C3CCC(=O)NC3=O)C4=O)CC2)CO1` (stereo not drawn) [GT-05672, 3-(5-((4-((4-(4-chlorophenyl)-6,6-dimethyl-5,6-dihydro-2H-pyran-3-yl)methyl)piperazin-1-yl)methyl)-1-oxoisoindolin-2-yl)piperidine-2,6-dione], the IC50 in experiment [1] was 580 nM; in the experiment on MM.1S cells it was 10 to 50 nM; with Mino cells it was 10 to 50 nM; in the experiment on Daudi cells, 500 to 1000 nM. Besides, the “residual substrate protein level, IKZF1” value on IKZF1 protein is reported as “A (A represents a residual substrate protein level of <50%)”. Moreover, at GSPT1 protein, the “residual substrate protein level, GSPT1” value is listed as “A (A represents a residual substrate protein level of <50%)”. Further, the “residual substrate protein level, IKZF3” value on IKZF3 protein is listed as “A (A represents a residual substrate protein level of <50%)”.
For the molecule `O=C1CCC(N2Cc3cc(CN4CCN(Cc5ccc(-c6ccco6)cc5)CC4)ccc3C2=O)C(=O)N1` (stereo not drawn) [GT-05693, 3-(5-((4-(4-(furan-2-yl)benzyl)piperazin-1-yl)methyl)-1-oxoisoindolin-2-yl)piperidine-2,6-dione], the IC50 in experiment [1] was 310 nM; in the experiment on MM.1S cells it was 100 to 500 nM; in the experiment with Mino cells it was 10 to 50 nM; with Daudi cells, 500 to 1000 nM. Also, on IKZF1 protein, the “residual substrate protein level, IKZF1” value is “B (B represents a residual substrate protein level of >50%)”. Further, at GSPT1 protein, the “residual substrate protein level, GSPT1” value is listed as “B (B represents a residual substrate protein level of >50%)”. The “residual substrate protein level, IKZF3” value at IKZF3 protein is on record as “A (A represents a residual substrate protein level of <50%)”.
Take `O=C1CCC(N2Cc3cc(CN4CCN(Cc5cnccc5-c5ccc(Cl)cc5)CC4)ccc3C2=O)C(=O)N1` (stereo not drawn) [GT-05703, 3-(5-((4-((4-(4-chlorophenyl)pyridin-3-yl)methyl)piperazin-1-yl)methyl)-1-oxoisoindolin-2-yl)piperidine-2,6-dione]: the IC50 in experiment [1] was 530 nM; in the experiment with MM.1S cells, 5 to 10 nM; in the experiment on Mino cells, 10 to 50 nM; with Daudi cells, 100 to 500 nM. In addition, the “residual substrate protein level, IKZF1” value at IKZF1 protein is “A (A represents a residual substrate protein level of <50%)”. Also, on GSPT1 protein, the “residual substrate protein level, GSPT1” value is listed as “B (B represents a residual substrate protein level of >50%)”. At IKZF3 protein, the “residual substrate protein level, IKZF3” value is listed as “A (A represents a residual substrate protein level of <50%)”.
For `O=C1CCC(N2Cc3cc(CN4CC5(C4)CN(Cc4ccccc4-c4ccc(Cl)cc4)C5)ccc3C2=O)C(=O)N1` (stereo not drawn) [GT-05709, 3-(5-((6-((4′-chloro-[1,1′-biphenyl]-2-yl)methyl)-2,6-diazaspiro[3.3]heptan-2-yl)methyl)-1-oxoisoindolin-2-yl)piperidine-2,6-dione], the IC50 in experiment [1] was 660 nM; with MM.1S cells it was 10 to 50 nM; with Mino cells, 50 to 100 nM; in the experiment with CCRF-CEM cells, 10 to 50 nM. The “residual substrate protein level, IKZF1” value at IKZF1 protein is on record as “A (A represents a residual substrate protein level of <50%)”. Moreover, the “residual substrate protein level, GSPT1” value on GSPT1 protein is listed as “A (A represents a residual substrate protein level of <50%)”. Moreover, at IKZF3 protein, the “residual substrate protein level, IKZF3” value is on record as “A (A represents a residual substrate protein level of <50%)”.
In the case of `O=C1CCC(N2Cc3cc(CN4CCN(Cc5ccc(-c6ccco6)s5)CC4)ccc3C2=O)C(=O)N1` (stereo not drawn) [GT-05780, 3-(5-((4-((5-(furan-2-yl)thiophen-2-yl)methyl)piperazin-1-yl)methyl)-1-oxoisoindolin-2-yl)piperidine-2,6-dione], the IC50 in experiment [1] was 230 nM; in the experiment with MM.1S cells, 500 to 1000 nM; in the experiment with Mino cells, 5 to 10 nM; in the experiment on Daudi cells, 100 to 500 nM. In addition, the “residual substrate protein level, IKZF1” value at IKZF1 protein is “A (A represents a residual substrate protein level of <50%)”. Besides, the “residual substrate protein level, GSPT1” value at GSPT1 protein is “A (A represents a residual substrate protein level of <50%)”. Besides, the “residual substrate protein level, IKZF3” value at IKZF3 protein was “A (A represents a residual substrate protein level of <50%)”.
